Broadly, the IC50 is the point on the concentration scale where inhibition reaches its midpoint. What is called melting point is the temperature of the solid-liquid transition.

Results on 20 compounds are retold here after patent US20100266674A1, “L-ODDC PRODRUGS FOR CANCER” (UNIVERSITY OF GEORGIA RESEARCH FOUNDATION, INC., priority 2006, published 2010).

Series [1] has as its system A549 non-small cell lung cancer cell line. Nature of the series: SRB chemosensitivity (cytotoxicity) assay, A549. Format: cell-based. The following applies: SRB test, 72 h incubation, mean of 3 experiments. As for the experimental part: (§1) The compounds were evaluated on two non-small cell lung cancer cell lines (A549 and SW1573). These cell lines were characterized for deoxynucleoside analog sensitivity and activity of dCK previously.
(§2) The chemosensitivity assay used in this study was the sulforhodamineB (SRB) assay as described earlier (Keepers et al, Eur J. Cancer, 1991; Rubinstein et al, J. Natl. Cancer Inst., 1990). Cells were transferred to 96 wells plates on day 0; on day 1 a serial dilution of the drug was made from a stock solution and added to the cells in triplicate. After an incubation period of 72 h the cells were fixed for 1 hr at 4° C. with 50% trichloroacetic acid washed, air-dried and stained with 0.4% SRB. The optical density was measured at 492 nm with a microplate reader (Tecan, Salzburg, Austria).
(§3) The results were expressed as percentage of control growth: […]
(§4) The data were plotted in a graph to give a growth inhibition curve. From this growth inhibition curve the […] value was determined by interpolating at the 50% growth level. […] LogP was estimated using ChemDraw 8.0 ultra. IC50s are expressed as mean of 3 experiments.

In series [2] the test system is SW1573 non-small cell lung cancer cell line. In words: SRB chemosensitivity (cytotoxicity) assay, SW1573. The series is classed as cell-based. The conditions noted are these: SRB test, 72 h incubation, mean of 3 experiments. As for the experimental part: as §1, §2, §3, §4
In series [3] the test system is Panc-02 pancreatic cancer cell line. In words: SRB cytotoxicity assay, Panc-02. The series is classed as cell-based. As for the experimental part:
(§5) Sensitivity to four prodrugs with linear aliphatic chains of different length was determined by the SRB cytotoxicity assay^[12], the IC50 value of the drug was determined in the different cell lines by interpolating the growth inhibition curves. The tests were performed on the BxPC-3 and Panc-02 pancreatic cancer cell lines.

A further series deals with A549. In words: SRB assay with addition of dipyridamole (role of ENT transport), A549. Format: cell-based. The conditions noted are these: A549, dipyridamole added to the cells. The source says: These cell lines were chosen because they had been characterized earlier for sensitivity to gemcitabine and for the activity of the rate-limiting enzyme in the activation of gemcitabine and troxacitabine, deoxycytidine kinase (dCK); […] In addition, non-small cell lung cancer is routinely being treated with gemcitabine containing regimens. […] It should be noted that it is unlikely that they are being phosphorylated as prodrugs due to their steric hindrance. […] In a cell line we tested whether transport (ENT) would play a role by addition of dipyridamole to the cells. In A549 dipyridamole gave a 2-fold increase in the IC50, but this was not observed for the prodrugs. […] It is likely that these cycloalkyl and aromatic moieties at the N4 position of compounds 6l-t may render these compounds poor substrates of intracellular amidases. We therefore speculate that the amidase-catalyzed hydrolysis of the prodrugs may play an important role, allowing the release of troxacitabine into the intracellular compartment for activation (the triphosphate). The better activity profile of prodrugs 6h-k could have been the result of an increased uptake due to the high lipophilicity as well as of a high rate of amidase-catalyzed cleavage of the linear aliphatic derivatives intracellularly.
For orientation: The SRB assay estimates cell density from bound dye.

The conditions of series [4]: cited from earlier work.
Series [5] deals with BxPC-3 pancreatic cancer cell line. In words: SRB cytotoxicity assay, BxPC-3. The series is classed as cell-based. The following applies: BxPC-3 (BxPC3) pancreatic cancer cell line. As for the experimental part: as §5

`O=c1nc(NC2CCCC2)ccn1[C@@H]1CO[C@H](CO)O1` [Compound 6m, (−)-(2S,4S)-1-[2-(Hydroxymethyl)-1,3-dioxolan-4-yl]-4-N-cyclopentyl-cytosine]: the IC50 was 2.97 µM in series [1] (Homo sapiens, A549) and 8.8 µM in series [2] (Homo sapiens, SW1573).

`O=C(Nc1ccn([C@@H]2CO[C@H](CO)O2)c(=O)n1)c1ccc(Cl)cc1Cl` [Compound 6t, (−)-(2S,4S)-1-[2-(Hydroxymethyl)-1,3-dioxolan-4-yl]-4-N-(2,4-dichlorobenzoyl)-cytosine] gave a melting point of 185 to 187 °C. The compound also had an IC50 in series [1] (Homo sapiens, A549) of 9.83 µM. Moreover, in series [2] (Homo sapiens, SW1573), the IC50 is 14.3 µM.

Regarding `O=C(Nc1ccn([C@@H]2CO[C@H](CO)O2)c(=O)n1)c1ccc(Br)cc1` [Compound 6r, (−)-(2S,4S)-1-[2-(Hydroxymethyl)-1,3-dioxolan-4-yl]-4-N-(p-bromobenzoyl)-cytosine], the half-maximal inhibitory concentration (IC50) was 4.53 µM in series [1] (Homo sapiens, A549) and 8.87 µM in series [2] (Homo sapiens, SW1573).

In the case of `O=C(Nc1ccn([C@@H]2CO[C@H](CO)O2)c(=O)n1)c1ccc(F)cc1` [Compound 6p, (−)-(2S,4S)-1-[2-(Hydroxymethyl)-1,3-dioxolan-4-yl]-4-N-(p-fluorobenzoyl)-cytosine], the concentration for half-maximal inhibition (IC50) in series [1] (Homo sapiens, A549) was determined as 8.67 µM; in series [2] (Homo sapiens, SW1573) it was 15.3 µM.

Turning to `CCCCC(=O)Nc1ccn([C@@H]2CO[C@H](CO)O2)c(=O)n1` [Compound 6e, (−)-(2S,4S)-1-[2-(Hydroxymethyl)-1,3-dioxolan-4-yl]-4-N-valeryl-cytosine], the concentration for half-maximal inhibition (IC50) was 5.23 µM in series [1] (Homo sapiens, A549) and 9.13 µM in series [2] (Homo sapiens, SW1573).

Regarding `COc1ccc(C(=O)Nc2ccn([C@@H]3CO[C@H](CO)O3)c(=O)n2)cc1` [Compound 6s, (−)-(2S,4S)-1-[2-(Hydroxymethyl)-1,3-dioxolan-4-yl]-4-N-(p-methoxybenzoyl)-cytosine], the IC50 in series [1] (Homo sapiens, A549) was found to be 3.5 µM; in series [2] (Homo sapiens, SW1573) it was 10 µM.

For the compound `CC(=O)Nc1ccn([C@@H]2CO[C@H](CO)O2)c(=O)n1` [Compound 6a, (−)-(2S,4S)-1-[2-(Hydroxymethyl)-1,3-dioxolan-4-yl]-4-N-acetyl-cytosine], the 50% inhibitory concentration (IC50) in series [1] (Homo sapiens, A549) was 6.87 µM; in series [2] (Homo sapiens, SW1573), 10.7 µM.

Consider `O=C(Nc1ccn([C@@H]2CO[C@H](CO)O2)c(=O)n1)c1ccc(Cl)cc1` [Compound 6q, (−)-(2S,4S)-1-[2-(Hydroxymethyl)-1,3-dioxolan-4-yl]-4-N-(p-chlorobenzoyl)-cytosine], for which the IC50 in series [1] (Homo sapiens, A549) was found to be 0.41 µM; in series [2] (Homo sapiens, SW1573) it was 2.77 µM.

Regarding `CCCCCCCCCC(=O)Nc1ccn([C@@H]2CO[C@H](CO)O2)c(=O)n1` [Compound 6i, (−)-(2S,4S)-1-[2-(Hydroxymethyl)-1,3-dioxolan-4-yl]-4-N-decanoyl-cytosine], the melting point is 141 to 143 °C. Further, half-maximal inhibition in series [1] (Homo sapiens, A549) (IC50) required 0.024 µM. The compound also showed an IC50 in series [2] (Homo sapiens, SW1573) of 0.04 µM. In addition, the “enhancement of sensitivity compared to troxacitabine” value in series [3] was found to be 1400 fold.

For `O=C(Nc1ccn([C@@H]2CO[C@H](CO)O2)c(=O)n1)c1ccccc1` [Compound 6o, (−)-(2S,4S)-1-[2-(Hydroxymethyl)-1,3-dioxolan-4-yl]-4-N-benzoyl-cytosine], the IC50 in series [1] (Homo sapiens, A549) turned out to be 8.53 µM; in series [2] (Homo sapiens, SW1573), 13.7 µM.

Take `CCCC(=O)Nc1ccn([C@@H]2CO[C@H](CO)O2)c(=O)n1` [Compound 6c, (−)-(2S,4S)-1-[2-(Hydroxymethyl)-1,3-dioxolan-4-yl]-4-N-butirryl-cytosine]: the results for the IC50 in series [1] and in series [2] were 6.6 µM and 8.07 µM, respectively.

On to `Nc1ccn([C@@H]2O[C@H](CO)[C@@H](O)[C@@H]2O)c(=O)n1` [Cytarabine, reference compound], for which the IC50 in series [1] (Homo sapiens, A549) is 0.62 µM; in series [2] (Homo sapiens, SW1573) it was 10.5 µM.

As for `O=c1nc(NC2CCCCC2)ccn1[C@@H]1CO[C@H](CO)O1` [Compound 6n, (−)-(2S,4S)-1-[2-(Hydroxymethyl)-1,3-dioxolan-4-yl]-4-N-cyclohexyl-cytosine], the IC50 was found to be 7.37 µM in series [1] (Homo sapiens, A549) and 14 µM in series [2] (Homo sapiens, SW1573).

For `CCCCCCC(=O)Nc1ccn([C@@H]2CO[C@H](CO)O2)c(=O)n1` [Compound 6g, (−)-(2S,4S)-1-[2-(Hydroxymethyl)-1,3-dioxolan-4-yl]-4-N-heptanoyl-cytosine], the IC50 was determined as 1.04 µM in series [1] (Homo sapiens, A549) and 2.4 µM in series [2] (Homo sapiens, SW1573).

For `CCCCCCCCCCCCCCCC(=O)Nc1ccn([C@@H]2CO[C@H](CO)O2)c(=O)n1` [Compound 6k, (−)-(2S,4S)-1-[2-(Hydroxymethyl)-1,3-dioxolan-4-yl]-4-N-palmitoyl-cytosine], the 50% inhibitory concentration (IC50) in series [1] (Homo sapiens, A549) worked out at 0.004 µM; in series [2] (Homo sapiens, SW1573), 0.02 µM.

As to `Nc1ccn([C@@H]2O[C@H](CO)[C@@H](O)C2(F)F)c(=O)n1` [Gemcitabine, reference compound], the 50% inhibitory concentration (IC50) in series [1] (Homo sapiens, A549) came out at 0.013 µM; in series [2] (Homo sapiens, SW1573), 0.008 µM.

Turning to `Nc1ccn([C@@H]2CO[C@H](CO)O2)c(=O)n1` [Troxacitabine, (−)-2′-deoxy-3′-oxacytidine, reference compound], the IC50 in series [1] (Homo sapiens, A549) was determined as 0.68 µM; in series [2] (Homo sapiens, SW1573), 2.3 µM. The “increase in the IC50 by dipyridamole” value with A549 came to 2 fold. In addition, in series [4], the plasma half-life is 82 h.

Take `CCCCCCCCCCCCNc1ccn([C@@H]2CO[C@H](CO)O2)c(=O)n1` [Compound 6j, (−)-(2S,4S)-1-[2-(Hydroxymethyl)-1,3-dioxolan-4-yl]-4-N-lauryl-cytosine]: the IC50 in series [1] (Homo sapiens, A549) came out at 0.015 µM; in series [2] (Homo sapiens, SW1573), 0.033 µM. Moreover, the “decrease in IC50 / enhancement of sensitivity compared to troxacitabine” value in series [5] came out at 160 fold.

`O=c1nc(NC2CC2)ccn1[C@@H]1CO[C@H](CO)O1` [Compound 6l, (−)-(2SAS)-1-[2-(Hydroxymethyl)-1,3-dioxolan-4-yl]-4-N-cyclopropyl-cytosine]: the IC50 in series [1] was 18.7 µM; in series [2], 22 µM.

Take `CCCCCCCCC(=O)Nc1ccn([C@@H]2CO[C@H](CO)O2)c(=O)n1` [Compound 6h, (−)-(2S,4S)-1-[2-(Hydroxymethyl)-1,3-dioxolan-4-yl]-4-N-nonanoyl-cytosine]: the IC50 in series [1] (Homo sapiens, A549) amounted to 0.046 µM; in series [2] (Homo sapiens, SW1573), 0.276 µM.
